Results on three compounds are retold here after US8062639B2 (priority 2008, dated 2011).

For one data set, the target named is T1, soluble dog Na/K ATPase (Canis lupus familiaris, UniProt P50997).
T1 construct: soluble Dog kidney Na/K ATPase; purchased SigmaAldrich; host or cells: dog kidney (the tissue is named only in the general description)
Put plainly: Na/K ATPase activity by pNPP conversion. It counts as biochemical. Particulars: rate at 400 nm over 30 min, various concentrations (FIG. 2).

The next data set relates to conscious rats. It counts as in vivo, rat. Particulars: for death after hemorrhage plus infusion / restoration of plasma/blood volume after hemorrhage: 20 ml/kg hemorrhage plus infusion of 2 mg/ml (5 ml/hr) (FIG. 3); for change in plasma volume, infusion alone: infusion of 2 mg/ml (5 ml/hr), no hemorrhage, 8 rats/group (FIG. 3).

`C[C@@H]1O[C@@H](O[C@H]2C[C@@H](O)[C@]3(CO)[C@H]4[C@H](O)C[C@]5(C)[C@@H](C6=CC(=O)OC6)CC[C@]5(O)[C@@H]4CC[C@]3(O)C2)[C@H](O)[C@H](O)[C@H]1O` [ouabain]: the “inhibition of Na/K ATPase (conversion of pNPP to pNP)” value at soluble dog Na/K ATPase is listed as “inhibits Na/K ATPase in a dose-response manner”. Besides, in the data set on conscious rats, the “death after hemorrhage plus infusion” value was “leads to death”; the “restoration of plasma/blood volume after hemorrhage” value (“restoration of plasma/blood volume” for short) was “prevents restoration”; the “change in plasma volume, infusion alone” value is “no effect on plasma volume”.
As for `C[C@]12CC[C@H](O)C[C@H]1CC[C@@H]1[C@@H]2CC[C@]2(C)[C@@H](c3ccc(=O)oc3)CC[C@]12O` [Bufalin], in the data set on conscious rats, the “death after hemorrhage plus infusion” value is recorded as “leads to death”; the “restoration of plasma/blood volume” value is “prevents restoration”; the “change in plasma volume, infusion alone” value is “no effect on plasma volume”.
With `C[C@]12CC[C@H](O)C[C@@]1(O)CC[C@@H]1[C@@H]2CC[C@]2(C)[C@@H](c3ccc(=O)oc3)C[C@H]3O[C@]132` [marinobufogenin], the “inhibition of Na/K ATPase (conversion of pNPP to pNP)” value on soluble dog Na/K ATPase is listed as “inhibits Na/K ATPase in a dose-response manner”. Moreover, the “restoration of plasma/blood volume” value in the data set on conscious rats is listed as “did not have this effect”.
